Results on 1 compound are retold here after patent US12714682B2, “Calixarene compounds and uses thereof” (UNIVERSITÄT WIEN, priority 2019, dated 2026).

The test system of one data set is Osteopontin (OPN). The data set can be described thus: 15N-1H HSQC NMR binding to osteopontin. The method, then: In order to verify the predicted heparan sulfate mimicking activity of SCA-744, its physical interaction was probed with a prototypical HS-binding protein Osteopontin (OPN), a component of the extracellular matrix (ECM). To this end, NMR spectroscopy was used to directly probe the interaction and map the location of the interaction site along the protein backbone. The experimental strategy was as follows: First, ^15N-labelled OPN was prepared following well-established molecular biology technology techniques. Individual residue positions are directly monitored via the so-called ^15N-^1H Heteronuclear Single-Quantum Coherence (HSQC) spectroscopy, where individual cross peaks in the two-dimensional (2D) frequency spectrum corresponds to individual residue positions (amino acids) of the protein. Ligand binding changes the chemical environment of residues located in the binding site and leads to a change in the HSQC spectrum. Since the signal assignment is available, the residue positions which are affected by ligand binding can easily be identified by comparing HSQC spectra of the apo (ligand-free) and ligand-bound state of the protein (FIG. 7A). […] It is very convenient to analyze the chemical shift changes (induced by ligand binding) as a function of residue positions (FIG. 7B,C). Residues that display the largest chemical shift changes are typically part of the binding interface. […] Therefore, it can be concluded that SCA-744 and HS share the same ligand interaction sites and therefore are in competition for binding.

Data set [1] concerns Human neuroblastoma SH-SY5Y cells. Kind of data set: Untargeted metabolic profiling of SH-SY5Y cells. It is filed as cell-based. The following applies: 500 μM, 24 h. The method, then: Human neuroblastoma SH-SY5Y cells were differentiated and treated with 500 μM SCA-744 for 24 h. Cell pellets were extracted using a MeOH:ACN:H2O (2:2:1, v/v) solvent mixture. Untargeted metabolic profiling was performed at the VBCF Metabolomic Unit (www.vbcf.ac.at) employing high-resolution mass spectrometry.
The untarged metabolomic data was analyzed with the Compound Discover Software (version 3.1). The first set of metabolites were analyzed through the internal database of the Vienna Biocenter Core facility. The measured retention time of a compound was compared to the retention time of a standard previously measured. In the case there was a MS2 spectrum available, this was also taken into consideration for identification. The second set of metabolites was annotated with mzCloud (match at least 75%). Identification was based on mzCloud database comparison of measured molecular weight (5 ppm tolerance) and MS2 spectra. The third set of metabolites were annotated via ChemSpider identification (CSID) through molecular weight matching (max. mass tolerance 5 ppm). P-values were calculated by the Compound Discover Software from biological and technical (T1-T2, MS) replicates. For further annotations KEGG, HMDB, BioCyc, Metabolika and PubChem databases were used.
The metabolites with a false discovery rate (FDR)<0.05 along with p-values and corresponding fold-change were extracted and subjected to chemical and metabolic network enrichment analysis. Enrichment analysis based on chemical similarity was conducted using ChemRich that is independent of biochemical pathway assignments, but rather utilizes Tanimoto substructure similarity coefficients and medical subject headings ontology to generate non-overlapping clusters of metabolites into distinct chemical classes. Statistical testing was determined by Kolmogorv-Smirnov testing and an FDR adjusted P value of <0.05 was considered significant.
Comparison of relative metabolite abundance between control and -treated cells was determined by unpaired univariate analysis. Calculated P values were adjusted based on an FDR of 0.05 and filtered by log Fold-Change (log FC) analysis (Table 3). For illustrative purposes the metabolites are annotated on the resulting volcano plot with log FC>1 log FC<−2. A total of 261 annotated metabolites were found with an FDR<0.05.

The test system of data set [2] is SH-SY5Y neuroblastoma cells. The data set can be described thus: MPP+ induced mitochondria fragmentation in SH-SY5Y cells (MitoTracker confocal imaging). It is filed as cell-based, human. The following applies: MPP+ 0.5 mM 48 hours, SCA-744 500 μM. The method, then:
To test whether SCA-744 would be able to rescue cells from oxidative damage induced by mitochondrial dysfunction, SH-SY5Y neuroblastoma cells were treated with 1-methyl-4-phenylpyridinium (MPP+) (0.5 mM, 48 hours) to induce mitochondria fragmentation. […] To visualize mitochondria, cells were incubated with MitoTracker Red CMXRos, a mildly thiol-reactive chloromethyl moiety for mitochondria labelling (MitoTracker Red CMXRos #9082 Cell Signaling), fixed and mounted. Mitochondrial morphology was imaged with a laser scanning confocal microscope LSM710 Zeiss.

In the next data set the test system is LDL-R. The data set can be described thus: LDL-R immunoblot in HeLa cells. It is filed as cell-based, human. The following applies: 50 or 500 μM, 24 or 48 hours, no signal in control. The method, then:
As illustrated in the Table 1 (FIG. 10), the SCA-744 affects the expression of several genes involved in lipid metabolism, such as the Low-density Lipoprotein Receptor, a major determinant of cholesterol levels in plasma. LDLR. […] To assess directly the effect of SCA-744 on the level of LDL-R expression, HeLa cells were treated with SCA-744 at 50 or 500 μM concentrations for 24 or 48 hours. Cells were harvested, cell lysate prepared and then analysed by immunoblotting using an anti-human LDL-R antibody (C7: sc-18823, Santa Cruz Biotechnologies).
Background: Immunoblotting shows a protein as a band on a membrane.

A short description of data set [3]: Cytotoxicity, CellTiter-Glo cell viability. It is filed as cell-based. To be noted: human, HEK 293 cells (printed as HEK 293 neuroblastoma cell lines), 72 h treatment, read-out: EC50 cytotoxicity (cell viability, ATP). On the procedure:
FIG. 19.: In-vitro assessment of SCA-744 (A) and SCA-754 (B) cytotoxicity. Experiments were performed using HEK 293 […] cell lines. The effect of SCA-744 and SCA-754 on cell viability was assessed using a standard ATP, CellTiter-Glo® Luminescent Cell Viability Assay following 72 hours treatment.
In vitro assessment of cytotoxicity of SCA-744 and SCA-754 in mammalian cells. 72 h following SCA-744 and SCA-754-treatment, cell viability was assessed using a standard ATP method, CellTiter-Glo® Luminescent Cell Viability Assay.
Background: ATP-based viability assays read luminescence as a measure of living cells.

The next data set deals with aged mice. The data set can be described thus: Lung lysate cytokines in aged mice (animal model of ageing). The following applies: 30 mg/kg i.p., 2 or 3 days intervals for 2 weeks. It is filed as in vivo. On the procedure:
In a second set of experiments, the anti-inflammatory effect of SCA-744 was tested in vivo, in an animal model of ageing. It is well established that the ageing process is associated with low-grade inflammation. Mice older than 18 months show many characteristics of aged humans and are considered as a relevant model of human ageing. […] After treatment of aged mice (5 mice/group) with SCA-744 for 2 weeks (at 2 or 3 days intervals at 30 mg/kg dose, i.p.), lungs of the mice were harvested and lysates were prepared. Cytokine levels were determined by LEGENDplex™ Mouse Inflammation Panel assay from BioLegend. […] Importantly, the anti-inflammatory cytokine IL-10 was not affected by SCA-744.

Entries after “also recorded” stand apart in the source; their conditions may differ.

On to `O=S(=O)(O)c1cc2c(O)c(c1)Cc1cc(S(=O)(=O)O)cc(c1O)Cc1cc(S(=O)(=O)O)cc(c1O)Cc1cc(S(=O)(=O)O)cc(c1O)C2` [SCA-744, 4-sulfocalix[4]arene], for which the “binding to OPN (HSQC spectra ligand-free vs ligand-bound)” value in the data set with Osteopontin (OPN) (15N-labelled OPN) is “binds to a heparan sulfate binding protein, osteopontin; also recorded: unambigious proof for SCA-744 binding to OPN”. In addition, the “binding sites on OPN (chemical shift changes by residue)” value in the data set on Osteopontin (OPN) (HS compared with SCA-744) was “overlapping binding sites”. Besides, in data set [1], the “Glycolysis and NADH, as well as ATP” value is recorded as “significant down-regulated”; the “Hypoxanthine and Inosine abundance” value was “highly significant up-regulated”; the “Lysophosphatidyl (LPI) abundance” value is “most up-regulated metabolite”; the “Thymine and adenine nucleotides, dipeptides and amino acids” value is on record as “down-regulated”. In addition, the “pharmacological response in metabolic analysis” value in data set [1] is “altered lipid metabolism, down-regulated glycolysis and reduction of NADH, ATP”. For the same compound, the “mitochondria integrity after MPP+” value in data set [2] is “protects against cell death and restores mitochondria integrity; also recorded: cells maintained the integrity of mitochondria”. Moreover, in the data set on LDL-R, the “LDL-R protein (immunoblot)” value was “induces the expression of LDLR; also recorded: the LDL-R was detected in the cell lysates”. For the same compound, the half-maximal effective concentration (EC50) (commonly the midpoint of the concentration-response curve) at 72 h in data set [3] worked out at 2000 µM. In the data set on aged mice, the “IL-6, TNF-α and lipocalin (LCN2) in lung lysates” value is recorded as “Significantly decreased amounts”; the “anti-inflammatory cytokine IL-10 in lung lysates” value is recorded as “not affected”.
